In patent US20090233964A1, “METHODS FOR IMPROVING THE PHARMACOKINETICS OF HIV INTEGRASE INHIBITORS” (priority 2005, published 2009):
Like-named read-outs stand apart in the source and are kept apart here.

Legend:
[1] = human, in vivo
Procedure: Safety, tolerability, pharmacokinetics, and efficacy were monitored through Day 21 after dosing. The active treatments in the 5 cohorts were as follows: […] The duration of the study was 21 days, with 10 days of treatment and 11 days of follow-up. […] Matching placebo was administered orally under fed conditions. For Cohort 5 only, 100 mg RTV capsules were coadministered orally under fed conditions. […] Pharmacokinetics: The pharmacokinetic parameters of Compound 1 in plasma and peripheral blood mononuclear cells were summarized using descriptive statistics.

[2] = Example 7: safety of single 400 mg dose of Compound 1; format: in vivo, human; conditions: single oral dose, Japanese male healthy volunteers
Procedure: The subjects were admitted to the medical institution in the afternoon on the day before administration (“Day −1”). […] The subjects were discharged the day after administration (“Day 2”). Thus, the subjects were hospitalized for a total of three days. Follow up assessment for safety was performed 6 to 8 days after administration (“Days 7 to 9”).

[3] = Example 4: safety of FTC/TDF and Compound 1/r; format: in vivo, human; conditions: Compound 1/r and their co-administration
[4] = human, in vivo; remark: listed apart in the source
Procedure: Safety, tolerability, pharmacokinetics, and efficacy were monitored through Day 21 after dosing. The active treatments in the 5 cohorts were as follows: […] Safety: Adverse events, vital signs, electrocardiogram, ophthalmologic examination, and clinical laboratory tests were evaluated for safety. Safety: The proportion of subjects with adverse events was summarized by treatment, system organ class and preferred term for treatment-emergent adverse events, treatment-related adverse events, serious adverse events, and adverse events leading to study drug discontinuation. Adverse events were coded using the Medical Dictionary for Regulatory Activities (MedDRA®) version 8.1. […] Laboratory results were expressed on the original measurement scale and in terms of the toxicity grade. Changes from baseline in quantitative laboratory tests were summarized by visit.

HIV-1 = assay: Example 2: antiviral activity (HIV-1 RNA reduction) and exposure-response in subjects infected with HIV-1; format: in vivo, human
Procedure: At screening, subjects were to have a plasma HIV-1 RNA load of ≧10,000 to ≦300,000 copies/mL and a CD4+ cell count of ≧200 cells/mm^3.
Safety, tolerability, pharmacokinetics, and efficacy were monitored through Day 21 after dosing. […] The placebo group in Cohort 5 also received 100 mg of RTV.
The duration of the study was 21 days, with 10 days of treatment and 11 days of follow-up. […] Matching placebo was administered orally under fed conditions. For Cohort 5 only, 100 mg RTV capsules were coadministered orally under fed conditions.
Efficacy: The primary efficacy endpoint was the maximum HIV-1 RNA reduction (log10 copies/mL) from baseline through Day 11. The maximum reduction for an individual subject was the maximum drop among changes from baseline between Days 2 and 11.
The 2 subjects who received placebo+100 mg RTV were treated as a separate group. HIV-1 RNA values below the detection limit (50 copies/mL) were entered as 49 copies/mL.

[5] = Example 7: effect of food on pharmacokinetics of Compound 1 in Japanese male healthy volunteers; format: in vivo, human; conditions: 400 mg
Procedure: Subjects in the 400 mg fasted cohort received an additional 400 mg dose with breakfast after a washout period (generally a minimum of ten days after the initial administration). The interval of ten days between the two doses was considered appropriate for eliminating any within subject carryover effects. […] Doses were administered at similar times for each subject in each treatment period. […] Plasma samples were isolated from healthy subjects administered with Compound 1. The plasma samples were extracted by solid phase extraction using Empore™ Disk Plate (C8SD), and then measured by high-performance liquid chromatography/tandem mass spectrometry (LC/MS/MS) (HPLC model 2795 separations module from Waters; mass spectrometer model API4000 from MDS SCIEX). Ionization and detection were performed with electrospray ionization and positive ion detection with multiple reaction monitoring, respectively. […] To 50 μL of plasma samples spiked with […] each of 90% acetonitrile and 20 mmol/L ammonium formate-formic acid buffer (pH 3.0)/acetonitrile (10:90, v/v), 10 μL each of internal standard solution was added. To these samples, 200 μL of 0.1% formic acid in 10% acetonitrile was added. These solutions were then mixed for 10 seconds and centrifuged at 10,000 rpm for 5 minutes at 4° C. […] Then, 10 μL of each solution was injected into the LC/MS/MS system and analyzed.

[6] = Example 1: multiple-dose safety of Compound 1 alone and with RTV; format: in vivo, human
Procedure: The single-dose and multiple-dose pharmacokinetics of Compound 1 were also determined. The multiple-dose safety of Compound 1 administered alone and with RTV was also determined. Safety: Safety was evaluated by assessment of clinical laboratory tests at baseline and at various time points during the study; periodic physical examinations, including vital signs; and documentation of adverse events throughout the study. Safety: No statistical inference was performed for safety data in this pharmacokinetic study.

[7] = Example 5: pharmacokinetic drug-drug interaction of zidovudine and Compound 1/r; format: in vivo, human; conditions: for AUCtau, Cmax, Ctau (Compound 1 only) 90% CI of GMR (co-administration:alone): Compound 1/r 200/100 mg QD plus ZDV 300 mg BID, with a meal, bounds 70% to 143%
Source text: Zidovudine is a NRTI used in HIV patients.

[8] = Example 3: Compound 1 pharmacokinetics at a range of RTV doses; format: in vivo, human; conditions: Compound 1 125 mg QD + 200 mg RTV; mean
Procedure: (§1) The effects of a range of RTV doses (20, 50, 100, and 200 mg once daily) on hepatic cytochrome P450 3A (CYP3A) activity were also evaluated using a CYP3A substrate.
(§2) A randomized, open label, single-center, multiple-dose, two group, Phase 1 study was conducted (24 subjects (16 evaluable) subjects in two groups; 12 (8 evaluable) in each group) with an approximately even distribution of healthy male and non-pregnant, non-lactating female subjects aged between 18-45, inclusive
(§3) The population mean slope was estimated along with a corresponding 90% CI. This study was performed in compliance with the guidelines of Good Clinical Practices (GCPs).

[9] = Example 1: plasma pharmacokinetics of Compound 1 alone and coadministered with RTV in healthy subjects; format: in vivo, human; conditions: 100 mg
Source text: The study was an open-label, fixed-sequence, crossover, pharmacokinetic study with 12 subjects. The subjects were healthy males and non-pregnant, nonlactating females between 18 and 45 years of age, inclusive. The duration of the study was 20 days, with Period 1 of Days 1 to 10 and Period 2 of days 11 to 20. Follow-up contact was on day 27.

[10] = in vivo
Procedure: Pharmacokinetic (PK) blood draws were performed on days 7, 17, and 27.

[11] = system: hepatic cytochrome P450 3A (CYP3A) activity; assay: Example 3: IV midazolam (MDZ) pharmacokinetics as probe for CYP3A activity at a range of RTV doses; conditions: for AUCinf: MDZ 1 mg IV, mean
Procedure: as §1, §2
For MDZ: AUC0-last, AUCinf, % AUCexp, Clast, Tlast, λz, T1/2, CL and Vz.
as §3

[12] = Example 3: RTV pharmacokinetics when dosed with Compound 1; format: in vivo, human; conditions: RTV 100 mg QD with Compound 1; mean (CV %)
Procedure: as §1, §2, §3

[13] = after administration of Compound 1+RTV

## COc1cc2c(cc1Cc1cccc(Cl)c1F)c(=O)c(C(=O)O)cn2[C@H](CO)C(C)C [Compound 1, 6-(3-chloro-2-fluorobenzyl)-1-[(2S)-1-hydroxy-3-methylbutan-2-yl]-7-methoxy-4-oxo-1,4-dihydroquinoline-3-carboxylic acid]
[1]
  enhancement of exposure: 10 to 16 fold
[2]
  electrocardiogram (ECG) changes: No clinically significant electrocardiogram (ECG) changes were noted
  safety and tolerability: safe and well tolerated with no serious adverse events
[3]
  serious adverse events or discontinuations due to AEs: no serious adverse events
[4]
  changes in hematology and urinalysis findings, vital signs, body weight, electrocardiogram and ophthalmic examinations: No clinically relevant changes
  dose interruptions, discontinuations, or serious adverse events: no dose interruptions, discontinuations, or serious adverse events
  tolerability: generally well tolerated
HIV-1; Compound 1 Ctau versus HIV-1 RNA reduction
  Emax (reduction from baseline, simple Emax model): 2.32 log10 copies/mL
HIV-1; all dose levels, 10 consecutive days
  HIV-1 RNA levels compared with placebo: significantly reduced HIV-1 RNA levels
[5]
  AUC0-inf higher in the fed state compared to the fasted state: 2.69 fold
  Cmax higher in the fed state compared to the fasted state: 3.30 fold
[6]; Compound 1 alone and Compound 1+RTV, whole study
  serious adverse events: No serious adverse events occurred
[6]; [13]
  subjects with treatment-emergent AEs considered related to study drugs: 5 of 12 subjects
  treatment-related AEs reported in more than one subject: nausea (three subjects), vomiting (two subjects), headache (two subjects), and pruritus (two subjects)
[6]; after administration of Compound 1 alone
  subjects with treatment-emergent AEs considered related to study drugs: 2 of 12 subjects
[6]; concurrent oral Compound 1 100 mg twice daily and RTV 100 mg twice daily for up to 10 days
  tolerability: generally well-tolerated
[6]; during administration of Compound 1+RTV
  subjects experiencing nausea (most frequent treatment-emergent AE): 4 subjects
[6]; during administration of Compound 1+RTV, each 100 mg twice daily
  subjects with treatment-emergent adverse events: 7 of 12 subjects
[6]; during administration of Compound 1 alone, 100 mg twice daily
  subjects with treatment-emergent adverse events: 4 of 12 subjects
[6]; oral Compound 1 100 mg twice daily for up to 20 days
  tolerability: well tolerated
[7]; human, in vivo
  Half-life: supporting once daily dosing
[8]
  AUCtau: 20600 ng·h/mL
[9]; Compound 1 alone, indicating autoinduction
  mean steady-state systemic exposure (AUCtau, Day 10) lower compared with mean exposure (AUCinf) after a single dose (Day 1): approximately 20%
[9]; both sexes, human, plasma, po
  AUC: 908 ng·h/mL
[10]
  PK (Cmax, AUCtau, Ctau) during co-administration versus alone: unaffected

## Cc1cn([C@H]2C[C@H](N=[N+]=[N-])[C@@H](CO[C@@H]3O[C@H](C(=O)O)[C@@H](O)[C@H](O)[C@H]3O)O2)c(=O)[nH]c1=O [G-ZDV]
[7]
  AUCtau, Cmax, Ctau (Compound 1 only) 90% CI of GMR (co-administration:alone): within predefined PK equivalence bounds

## Cc1ncc2n1-c1ccc(Cl)cc1C(c1ccccc1F)=NC2 [MDZ, midazolam]
[11]; +20 mg RTV QD with Compound 1 125 mg
  AUCinf: 101 ng·h/mL
[11]; +50 mg RTV QD with Compound 1 125 mg
  AUCinf: 145 ng·h/mL
[11]; +100 mg RTV QD with Compound 1 125 mg
  AUCinf: 219 ng·h/mL
[11]; +200 mg RTV QD with Compound 1 125 mg
  AUCinf: 146 ng·h/mL
[11]; MDZ alone (Day 1)
  AUCinf: 31.0 ng·h/mL
[11]; MDZ +20 mg RTV
  CL: 2.38 mL/min/kg
  Clast: 1.53 ng/mL
  Half-life: 7.83 h
[11]; MDZ +50 mg RTV
  CL: 1.5 mL/min/kg
  Clast: 2.51 ng/mL
  Half-life: 14.4 h
[11]; MDZ +100 mg RTV
  CL: 1.2 mL/min/kg
  Clast: 3.34 ng/mL
  Half-life: 22.4 h
[11]; MDZ +200 mg RTV
  CL: 1.45 mL/min/kg
  Clast: 2.58 ng/mL
  Half-life: 15.2 h
[11]; MDZ alone
  CL: 7.45 mL/min/kg
  Clast: 0.20 ng/mL
  Half-life: 3.97 h

## CC(C)c1nc(CN(C)C(=O)N[C@H](C(=O)N[C@@H](Cc2ccccc2)C[C@H](O)[C@H](Cc2ccccc2)NC(=O)OCc2cncs2)C(C)C)cs1 [Ritonavir, (2S,3S,5S)-5-(N—(N—((N-Methyl-N-((2-isopropyl-4-thiazolyl)methyl)amino)-carbonyl)-L-valinyl)amino)-2-(N-((5-thiazolyl)methoxycarbonyl)amino)-1,6-diphenyl-3-hydroxyhexane]
[12]
  Half-life: 6.34 (18.4) hr

## Cc1cn([C@H]2C[C@H](N=[N+]=[N-])[C@@H](CO)O2)c(=O)[nH]c1=O [ZDV, zidovudine, reference compound]
[7]
  AUCtau, Cmax, Ctau (Compound 1 only) 90% CI of GMR (co-administration:alone): within predefined PK equivalence bounds
